Test system: Phosphodiesterase IV
Test: Inhibitory action on phosphodiesterase IV ([3H]cAMP hydrolysis, liquid scintillation)
Format: biochemical
Settings: test substance 10 μM; enzyme isolated from U-937 cell; cAMP 1 μM substrate; 30 min at 30° C.; duplicate
Method: Phosphodiesterase IV was isolated using U-937 cell as origin (Torphy, T. J. et al., J. Pharmacol. Exp. Ther., 263, 1195-1205 (1992)). Using [^3 H]cAMP and cAMP (1 μM) as substrate/tracer, incubation was performed for 30 min at 30° C. [^3H]5′-AMP was measured by liquid scintillation. Inhibitory activity is represented by the rate of inhibition of a test substance with respect to a control group that is without the test substance, and is calculated by the following formula: Inhibitory activity (%)=100×(control group value−value of group with test substance addition/control group value.
All tests were implemented in duplicate.

Compound | Phosphodiesterase IV inhibitory activity (10 μM)
COc1ccc(C(=O)CN(C)C(=O)/C=C/c2cccnc2)cc1OC [Compound 155, (E)-N-[2-(3,4-dimethoxyphenyl)-2-oxoethyl]-N-methyl-3-(3-pyridyl)-2-propenamide] | 69%
COc1ccc(CCN(C)C(=O)/C=C/c2cccnc2)cc1OC [Compound 143] | 50%
COc1ccc(CCN(C)C(=O)/C=C/c2cccnc2)cc1OC [Compound 144] | 47%
COc1ccc(CCNC(=S)/C=C/c2cccnc2)cc1OC.Cl [Compound 136] | 45%
COc1ccc(CCN(C)C(=O)/C=C/c2ccccn2)cc1OC.Cl [Compound 153] | 59%
COc1ccc(CCN(C)C(=O)/C=C/c2cccnc2)cc1OC [Compound 84, (E)-N-(3,4-dimethoxyphenethyl)-N-methyl-3-(3-pyridyl)-2-propenamide] | 49%
COc1ccc(CCN(C)C(=O)/C(C#N)=C/c2cccnc2)cc1OC [Compound 2] | 72%
COc1ccc(CCN(C)C(=S)/C=C/c2cccnc2)cc1OC.Cl [Compound 135, (E)-N-(3,4-dimethoxyphenethyl)-N-methyl-3-(3-pyridyl)-2-propenethioamide Hydrochloride] | 53%
COc1ccc(CCN(C)C(=O)/C=C/c2cccnc2)cc1OC.Cl [Compound 140] | 54%
COc1ccc(CCN(C)C(=O)/C=C/c2cccnc2)cc1OC [Compound 146] | 43%

Test system: not given
Test: not given
Settings: not given

Compound | melting point
COCCOCOc1c(OC)cc(CCN(C)C(=O)/C=C/c2cccnc2)cc1OC [Compound 36] | 152 to 155 °C
CCOC(=O)COc1ccc(CNC(=O)/C=C/c2cccnc2)cc1OC [Compound 105] | 105 to 107 °C

Further lines, results first:

melting point | Compound
168 to 170 °C | COC(=O)CN(CCc1ccc(OC)c(OC)c1)C(=O)/C=C/c1cccnc1.Cl
182 to 187 °C | COc1ccc(CCNC(=S)/C=C/c2cccnc2)cc1OC.Cl [Compound 136]
115 to 120 °C | COc1ccc(CCN(C)C(=O)/C(C#N)=C/c2cccnc2)cc1OC [Compound 2]

Source: patent publication US20050187264A1, “Phosphodiesterase iv inhibitor containing pyridylacrylamide derivative” (priority 2002, published 2005)
